The text below walks through data of patent US20130150386A1 (priority 2011, published 2013).

For series [1] the following is noted: in vivo; cited from earlier work.
A further series relates to NSCLC patients. Particulars: E-cad 3+ sub-group [N=26].

`Nc1ccccc1NC(=O)c1ccc(CNC(=O)OCc2cccnc2)cc1` [Entinostat, N-(2-aminophenyl)-4-[N-(pyridine-3-yl)methoxycarbonylamino-methyl]-benzamide]: the half-life result in series [1] is reported as “about 100 hours”.

Compound `C#Cc1cccc(Nc2ncnc3cc(OCCOC)c(OCCOC)cc23)c1` [erlotinib/placebo] came in with an overall survival in the series on NSCLC patients of 5.4 months.
